Here are results for one compound from patent publication EP0099122A2, “Compositions comprising pepstatin and an histamine H2-receptor antagonist having an enhanced antiulcer activity” (Bristol-Myers Company, priority 1982, dated 1984).

The assay deals with HCl-Induced Formation of Gastric Lesions. As to the kind of experiment: HCl-induced gastric erosions in rats (modified method of Robert et al.). It is filed as in vivo, Long Evans rats. Particulars: for enhancement of the inhibitory effect by pepstatin: plus 20 mg/kg pepstatin. The procedure: In the tests described below, gastric erosions produced in rats by the oral instillation of 1.0 mL of 0.75N HC1 were compared with those in rats which had been pretreated with the most preferred compound of Formula I (of Example 1) or with that compound and pepstatin. Comparison tests utilizing pretreatment with the newer commercial product, ranitidine, and with ranitidine and pepstatin, are also shown. Ranitidine is about 4 and 6 times as potent as cimetidine as an inhibitor of gastric acid secretion by the oral route in the rat and dog, respectively.
A modification of the method of Robert et al., [Gastroenterology, 77, 433-443 (1979)] was employed to produce gastric erosions. Adult male, Long Evans rats weighing 280-300 g (Blue Spruce Farms, Alton, New York) were used. The animals were individually caged and food and water were removed 24 and 18 hours, respectively, prior to testing. On the following day, the test compound was administered orally to the animals 30 minutes before 1.0 mL of 0.75N HC1 was instilled into the stomach by gavage. Animals treated with the combination of the test compound and pepstatin received the test compound 30 minutes before, and a fixed amount of pepstatin (20 mg/kg po) 10 minutes before, the hydrochloric acid was administered. […] One hour after receiving the HC1 solution, the animals were sacrificed with an intraperitoneal injection of 0.2 mL of T-61®, a euthanasia solution (National Laboratories Corp.).
The stomachs were removed from the animals, cut along the greater curvature, opened, rinsed with saline and pinned out flat in a standard position for macroscopic examination and scoring of erosions. The stomachs were photographed with a Polaroid® Close Up camera (Polaroid Corporation) and scoring was determined from the photographs. For scoring purposes, only those erosions with a minimum length of 1 mm were considered. The severity of gastric ulceration was defined for each animal as the sum of the maximum continuous lengths (in mm) of the erosions satisfying the above criteria. Percent inhibition of lesion formation was defined as
(mm erosion, vehicle control') - (mm erosion, test agent) 100. (mm erosion, vehicle control)
Data were analyzed using the t-test for unpaired data' and ED50 values were calculated from the dose response data using probit analysis [Finney, Probit Analysis, 3rd ed., University Press, Cambridge, England (1971)].
The compound of Example 1 and ranitidine (synthesized by the Medicinal Chemistry Research Department of Bristol Laboratories, Division of.Bristol-Myers Company) were dissolved in one equivalent of HC1 and the pH adjusted to 5.5 with NaOH. A suspension of pepstatin (Banyu Pharmaceutical Co. Ltd.) in water was made by homogenizing the compound with a few drops of Tween-80® (Atlas Chemical Industries). Each of these compounds were administered orally by gavage in a volume of 2 mL/kg.

For the compound `Nc1c(NCCCOc2cccc(CN3CCCCC3)c2)c(=O)c1=O` [Example 1], the “Potency Ratio” value (compound alone versus compound plus pepstatin (20 mg/kg po)) is on record as 3.5. Further, the “enhancement of the inhibitory effect by pepstatin” value reads like this: (Example 1 at 25 mg/kg) “the difference was not statistically significant”; (Example 1 at 50 and 75 mg/kg, ranitidine at 25-100 mg/kg) “significantly enhanced the inhibitory effect”. The “formation of gastric erosions” value (pretreatment po, compound alone, Example 1 at 25, 50 or 75 mg/kg, ranitidine at 25, 50, 75 or 100 mg/kg) was “decreased the formation of gastric erosions in a dose-related manner”. Further, the ED50 (rat, compound po 30 min before 1.0 mL 0.75N HCl, compound alone, probit analysis, read-out: ED50 (mg/kg) for Inhibition of Ulcer Formation, Alone) is 115 mg/kg. Also, the “ED50 (mg/kg) for Inhibition of Ulcer Formation, with Pepstatin” value (rat, compound po 30 min before and pepstatin 20 mg/kg po 10 min before 1.0 mL 0.75N HCl) came out at 33 mg/kg.
